Data on nine compounds can be found in US4357331A, “7αMethoxycephalosporin derivatives” (Meiji Seika Kaisha, Ltd., priority 1978, dated 1982).

In test [1] the test system is Staphylococcus aureus 209p. The experiment in a line: MIC, minimum inhibitory concentration (nutrient agar, 37° C., 20 hours). It is filed as cell-based.
The subject of test [2] is Bacillus anthracis No. 119. The experiment in a line: microbe, parasite or virus in culture. It counts as cell-based. The settings on record: NO.119, 20 h, read-out: MIC (minimum inhibitory concentration).
The next test has as its system Escherichia coli 255. The test can be described thus: MIC, minimum inhibitory concentration (nutrient agar, 37° C., 20 hours). It is filed as cell-based.
The next test relates to Citrobacter freundii. The description is as above. It counts as cell-based.
Another test concerns Klebsiella pneumoniae. Described as above. It is filed as cell-based. The settings on record: read-out: MIC (minimum inhibitory concentration).
The subject of a further test is Proteus morganii. The test is described as above. It is filed as cell-based. The settings on record: Morganella morganii.
For test [3], the system named is Serratia marcescens No. 1. Described as above. It is filed as cell-based. To be noted: read-out: MIC (minimum inhibitory concentration).
For test [4], the system named is Pseudomonas aeruginosa IFO 3080. The test is described as above. It counts as cell-based. To be noted: IFO3080.
A further test deals with Escherichia coli No. 29. The experiment in a line: in vivo antibacterial activity (ED50) in mice challenged intraperitoneally with E. coli No. 29. Also on record: species or system Escherichia coli No. 29; Male ddY mice. The settings on record: male ddY mice, fatality over a week, Probit method.
Where [5] appears, read: Serratia marcescens No. 1, 37° C., 20 hours.

Converted amounts (≈) assume the structure as drawn. Read-outs that look alike come from different tables or passages of the source. A value given as a limit tells only on which side of the number the result lay.

Turning to `CO[C@@]1(NC(=O)Cc2cccs2)C(=O)N2C(C(=O)O)=C(COC(N)=O)CS[C@@H]21` [Cefoxitin, cefoxitin, reference compound], the MIC in test [1] came out at 1.56 µg/mL (≈ 3.65 µM); in test [2], 3.13 µg/mL (≈ 7.32 µM); against Escherichia coli 255, 50 µg/mL (≈ 117 µM); in the test with Citrobacter freundii it was 50 µg/mL (≈ 117 µM); in the test on Klebsiella pneumoniae (20 h), 3.13 µg/mL (≈ 7.32 µM); with Proteus morganii it was 6.25 µg/mL (≈ 14.6 µM). The MIC amounted to 3.13 µg/mL (≈ 7.32 µM) in test [3] (Serratia marcescens, NO.1, 20 h) and 100 µg/mL (≈ 234 µM) in test [4]. Besides, the “ED50 with Escherichia coli No. 29” value with Escherichia coli No. 29 (oral) is recorded as more than 5.0 mg/mouse; with Escherichia coli No. 29 (subcutaneous), 0.43 mg/mouse.

For `COC1(NC(=O)CSCCC(N)C(=O)O)C(=O)N2C(C(=O)[O-])=C(C[n+]3ccc(C(N)=O)cc3)CSC21` (stereo not drawn) [Ex. 12, 7β-(3DL-3-amino-carboxy)propylthioacetamido-7α-methoxy-3-(p-carbamoylpyridinium)methyl-3-cephem-4-carboxylic acid], the MIC amounted to 6.25 µg/mL (≈ 11.6 µM) in test [1]; 1.56 µg/mL (≈ 2.89 µM) in [2]; 3.13 µg/mL (≈ 5.8 µM) against Escherichia coli 255; 25 µg/mL (≈ 46.3 µM) in the test on Citrobacter freundii; 6.25 µg/mL (≈ 11.6 µM) in the test on Klebsiella pneumoniae (37° C., 20 hours); 12.5 µg/mL (≈ 23.2 µM) with Proteus morganii. For the same compound, the MIC in [3] (setting [5]) came out at 12.5 µg/mL (≈ 23.2 µM); in [4], 6.25 µg/mL (≈ 11.6 µM).

For `COC1(NC(=O)CSCCC(N)C(=O)O)C(=O)N2C(C(=O)O)=C(CSc3nnnn3C)CSC21` (stereo not drawn) [Ex. 11, sodium 7β-(3D-3-amino-3-carboxy)propylthioacetamido-7α-methoxy-3-(1-methyl-1H-tetrazol-5-yl)thiomethyl-3-cephem-4-carboxylate], the MIC in test [1] stood at 3.13 µg/mL; in test [2], 0.2 µg/mL; against Escherichia coli 255, 0.78 µg/mL; in the test with Citrobacter freundii, 25 µg/mL; with Klebsiella pneumoniae (37° C., 20 hours), 1.56 µg/mL; in the test with Proteus morganii, 3.13 µg/mL. The MIC was 0.78 µg/mL in test [3] (setting [5]) and 100 µg/mL in test [4].

As to `CCOC(=O)C(N)CSCC(=O)NC1(OC)C(=O)N2C(C(=O)OCOC(=O)C(C)(C)C)=C(CSc3nnnn3C)CSC21` (stereo not drawn) [Example 17, pivaloyloxymethyl 7β-(2D-2-amino-2-ethoxycarbonyl)ethylthioacetamido-7α-methoxy-3-(1-methyl-1H-tetrazol-5-yl)thiomethyl-3-cephem-4-carboxylate], the “ED50 with Escherichia coli No. 29” value in the test on Escherichia coli No. 29 (oral) is 0.86 mg/mouse; with Escherichia coli No. 29 (subcutaneous) it was 0.046 mg/mouse.

For `COC1(NC(=O)CSCCNC(N)=O)C(=O)N2C(C(=O)O)=C(CSc3nnnn3C)CSC21` (stereo not drawn) [Ex. 2, 7β-ureidoethylthioacetamido-7α-methoxy-3-(1-methyl-1H-tetrazol-5-yl)thiomethyl-3-cephem-4-carboxylic acid], the MIC was 3.13 µg/mL (≈ 6.04 µM) in test [1]; 0.78 µg/mL (≈ 1.5 µM) in test [2]; 12.5 µg/mL (≈ 24.1 µM) against Escherichia coli 255; 25 µg/mL (≈ 48.2 µM) with Citrobacter freundii; 1.56 µg/mL (≈ 3.01 µM) with Klebsiella pneumoniae (37° C., 20 hours); 3.13 µg/mL (≈ 6.04 µM) with Proteus morganii. In addition, the results for the MIC in test [3] (setting [5]) and in [4] were 3.13 µg/mL (≈ 6.04 µM) and 25 µg/mL (≈ 48.2 µM), respectively.

Take `COC1(NC(=O)CSCCN)C(=O)N2C(C(=O)O)=C(CSc3nnnn3C)CSC21` (stereo not drawn) [Ex. 1, 7β-aminoethylthioacetamido-7α-methoxy-3-(1-methyl-1H-tetrazol-5-yl)thiomethyl-3-cephem-4-carboxylic acid]: the MIC turned out to be 1.56 µg/mL (≈ 3.28 µM) in test [1]; 0.39 µg/mL (≈ 0.82 µM) in test [2]; 6.25 µg/mL (≈ 13.1 µM) with Escherichia coli 255; 1.56 µg/mL (≈ 3.28 µM) in the test on Citrobacter freundii; 3.13 µg/mL (≈ 6.58 µM) in the test with Klebsiella pneumoniae (37° C., 20 hours); 6.25 µg/mL (≈ 13.1 µM) against Proteus morganii. Moreover, the results for the MIC in [3] (setting [5]) and in [4] were 3.13 µg/mL (≈ 6.58 µM) and 25 µg/mL (≈ 52.6 µM), respectively.

In the case of `COC1(NC(=O)CSCC(N)C(=O)O)C(=O)N2C(C(=O)OC(C)OC(=O)C(C)(C)C)=C(CSc3nnnn3C)CSC21` (stereo not drawn) [Example 19, 1-pivaloyloxyethyl 7β-(2D-2-amino-2-carboxy)ethylthioacetamido-7α-methoxy-3-(1-methyl-1H-tetrazol-5-yl)thiomethyl-3-cephem-4-carboxylate], the figures for the “ED50 with Escherichia coli No. 29” value in the test on Escherichia coli No. 29 (oral) and with Escherichia coli No. 29 (subcutaneous) were 0.25 mg/mouse and 0.17 mg/mouse, respectively.

As to `CC1=C(C(=O)O)N2C(=O)[C@@H](NC(=O)[C@H](N)c3ccccc3)[C@H]2SC1` [Cephalexin, cephalexin, reference compound], the “ED50 with Escherichia coli No. 29” value in the test with Escherichia coli No. 29 (oral) amounted to 1.60 mg/mouse.

As to `COC(=O)C(N)CSCC(=O)NC1(OC)C(=O)N2C(C(=O)OC(C)OC(C)=O)=C(CSc3nnnn3C)CSC21` (stereo not drawn) [Example 18, 1-acetoxyethyl 7β-(2D-2-amino-2-methoxycarbonyl)ethylthioacetamido-7α-methoxy-3-(1-methyl-1H-tetrazol-5-yl)thiomethyl-3-cephem-4-carboxylate], the results for the “ED50 with Escherichia coli No. 29” value in the test on Escherichia coli No. 29 (oral) and with Escherichia coli No. 29 (subcutaneous) were 0.36 mg/mouse and 0.24 mg/mouse, respectively.
